Assay results as given in PubChem BioAssay (NCI).
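How tested: cells in 96-well plates exposed to compound for 48 hours at five concentrations. At the GI50, growth is halved. TGI: total growth inhibition.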

What was measured:
Test in all cases: growth of human tumour cells (NCI), 48 h
SR leukemia = system: SR leukemia
SNB-75 CNS = system: SNB-75 CNS
NCI-H522 lung = system: NCI-H522 lung
SK-OV-3 ovarian = system: SK-OV-3 ovarian
NCI-H23 lung = system: NCI-H23 lung
PC-3 prostate = system: PC-3 prostate
MOLT-4 leukemia = system: MOLT-4 leukemia
A549 NSCLC = system: A549 NSCLC
UACC-62 melanoma = system: UACC-62 melanoma
RXF 393 renal = system: RXF 393 renal
BT-549 breast = system: BT-549 breast
EKVX NSCLC = system: EKVX NSCLC
NCI-H226 lung = system: NCI-H226 lung
RPMI-8226 leukemia = system: RPMI-8226 leukemia
HCT-116 colon = system: HCT-116 colon
SNB-19 CNS = system: SNB-19 CNS
HS 578T breast = system: HS 578T breast
MALME-3M melanoma = system: MALME-3M melanoma
SN12C renal = system: SN12C renal
OVCAR-5 ovarian = system: OVCAR-5 ovarian
A498 renal = system: A498 renal
HCC-2998 colon = system: HCC-2998 colon
U251 CNS = system: U251 CNS
UO-31 renal = system: UO-31 renal
HCT-15 colon = system: HCT-15 colon
ACHN renal = system: ACHN renal
LOX IMVI melanoma = system: LOX IMVI melanoma
HOP-92 NSCLC = system: HOP-92 NSCLC
T-47D breast = system: T-47D breast
SK-MEL-5 melanoma = system: SK-MEL-5 melanoma
786-0 renal = system: 786-0 renal
OVCAR-3 ovarian = system: OVCAR-3 ovarian
KM12 colon = system: KM12 colon
MDA-MB-231 breast = system: MDA-MB-231 breast
SK-MEL-28 melanoma = system: SK-MEL-28 melanoma
SF-539 CNS = system: SF-539 CNS
HL-60(TB) leukemia = system: HL-60(TB) leukemia
MDA-MB-435 = system: MDA-MB-435
K-562 leukemia = system: K-562 leukemia
CAKI-1 renal = system: CAKI-1 renal
COLO 205 colon = system: COLO 205 colon
CCRF-CEM leukemia = system: CCRF-CEM leukemia
M14 melanoma = system: M14 melanoma
OVCAR-8 ovarian = system: OVCAR-8 ovarian
SW-620 colon = system: SW-620 colon
SF-268 CNS = system: SF-268 CNS
IGROV1 ovarian = system: IGROV1 ovarian
TK-10 renal = system: TK-10 renal
HOP-62 NSCLC = system: HOP-62 NSCLC
NCI/ADR-RES ovarian = system: NCI/ADR-RES ovarian
NCI-H460 lung = system: NCI-H460 lung
HT29 colon = system: HT29 colon
DU-145 prostate = system: DU-145 prostate
SK-MEL-2 melanoma = system: SK-MEL-2 melanoma
UACC-257 melanoma = system: UACC-257 melanoma
OVCAR-4 ovarian = system: OVCAR-4 ovarian
SF-295 CNS = system: SF-295 CNS
MCF7 breast = system: MCF7 breast

## C=C(C)C(=O)O[C@H]1C[C@@]2(C)OC(=CC2=O)/C(CO)=C\[C@H]2OC(=O)C(=C)[C@H]12
SR leukemia
  GI50: 43.7 nM
  TGI: 249 nM
SNB-75 CNS
  GI50: 132 nM
  TGI: 1700 nM
NCI-H522 lung
  GI50: 7.73 nM
  TGI: 24.5 nM
SK-OV-3 ovarian
  GI50: 1190 nM
  TGI: > 3330 nM
NCI-H23 lung
  GI50: 153 nM
  TGI: 421 nM
PC-3 prostate
  GI50: 190 nM
  TGI: 985 nM
MOLT-4 leukemia
  GI50: 80.2 nM
  TGI: 265 nM
A549 NSCLC
  GI50: 840 nM
  TGI: > 3330 nM
UACC-62 melanoma
  GI50: 56.9 nM
  TGI: 123 nM
RXF 393 renal
  GI50: 57.6 nM
  TGI: 120 nM
BT-549 breast
  GI50: 92.8 nM
  TGI: 292 nM
EKVX NSCLC
  GI50: 137 nM
  TGI: 1070 nM
NCI-H226 lung
  GI50: 68.5 nM
  TGI: 172 nM
RPMI-8226 leukemia
  GI50: 80.9 nM
  TGI: 229 nM
HCT-116 colon
  GI50: 60.4 nM
  TGI: 163 nM
SNB-19 CNS
  GI50: 937 nM
  TGI: > 3330 nM
HS 578T breast
  GI50: 294 nM
  TGI: > 3330 nM
MALME-3M melanoma
  GI50: 70.8 nM
  TGI: 203 nM
SN12C renal
  GI50: 114 nM
  TGI: > 1230 nM
OVCAR-5 ovarian
  GI50: 84.8 nM
  TGI: 226 nM
A498 renal
  GI50: 565 nM
  TGI: 1290 nM
HCC-2998 colon
  GI50: 216 nM
  TGI: 535 nM
U251 CNS
  GI50: 159 nM
  TGI: 579 nM
UO-31 renal
  GI50: 68.5 nM
  TGI: 177 nM
HCT-15 colon
  GI50: 70.3 nM
  TGI: 223 nM
ACHN renal
  GI50: 61.2 nM
  TGI: 228 nM
LOX IMVI melanoma
  GI50: 53.3 nM
  TGI: 106 nM
HOP-92 NSCLC
  GI50: 72.6 nM
  TGI: 173 nM
T-47D breast
  GI50: 72.9 nM
  TGI: 588 nM
SK-MEL-5 melanoma
  GI50: 318 nM
  TGI: 1230 nM
786-0 renal
  GI50: 65.2 nM
  TGI: 144 nM
OVCAR-3 ovarian
  GI50: 55.2 nM
  TGI: 149 nM
KM12 colon
  GI50: 509 nM
  TGI: 1120 nM
MDA-MB-231 breast
  GI50: 79.4 nM
  TGI: 206 nM
SK-MEL-28 melanoma
  GI50: 66.1 nM
  TGI: 148 nM
SF-539 CNS
  GI50: 88 nM
  TGI: 287 nM
HL-60(TB) leukemia
  GI50: 67.7 nM
  TGI: 189 nM
MDA-MB-435
  GI50: 66.4 nM
  TGI: 146 nM
K-562 leukemia
  GI50: 94.6 nM
  TGI: 621 nM
CAKI-1 renal
  GI50: 87.9 nM
  TGI: 301 nM
COLO 205 colon
  GI50: 32.7 nM
  TGI: 95.4 nM
CCRF-CEM leukemia
  GI50: 27.4 nM
  TGI: 259 nM
M14 melanoma
  GI50: 72.3 nM
  TGI: 178 nM
OVCAR-8 ovarian
  GI50: 115 nM
  TGI: > 1540 nM
SW-620 colon
  GI50: 52.1 nM
  TGI: 147 nM
SF-268 CNS
  GI50: 168 nM
  TGI: 836 nM
IGROV1 ovarian
  GI50: 145 nM
  TGI: 562 nM
TK-10 renal
  GI50: 57.3 nM
  TGI: 127 nM
HOP-62 NSCLC
  GI50: 654 nM
  TGI: 2350 nM
NCI/ADR-RES ovarian
  GI50: 224 nM
  TGI: > 3330 nM
NCI-H460 lung
  GI50: 424 nM
  TGI: 2070 nM
HT29 colon
  GI50: 112 nM
  TGI: 356 nM
DU-145 prostate
  GI50: 120 nM
  TGI: 673 nM
SK-MEL-2 melanoma
  GI50: 120 nM
  TGI: 490 nM
UACC-257 melanoma
  GI50: 74 nM
  TGI: 213 nM
OVCAR-4 ovarian
  GI50: 151 nM
  TGI: 652 nM
SF-295 CNS
  GI50: 575 nM
  TGI: 1500 nM
MCF7 breast
  GI50: 86.1 nM
  TGI: 418 nM

## CCN1C(=O)N(CC)C2SC(N/N=C/c3ccccc3)=NC21 (stereo not given)
SR leukemia
  GI50: 194 nM
  TGI: > 100000 nM
SNB-75 CNS
  GI50: 173 nM
NCI-H522 lung
  GI50: 210 nM
  TGI: 735 nM
SK-OV-3 ovarian
  GI50: 614 nM
  TGI: > 100000 nM
NCI-H23 lung
  GI50: 474 nM
  TGI: > 100000 nM
PC-3 prostate
  GI50: 359 nM
  TGI: > 100000 nM
MOLT-4 leukemia
  GI50: 502 nM
  TGI: > 100000 nM
A549 NSCLC
  GI50: 606 nM
  TGI: > 100000 nM
UACC-62 melanoma
  GI50: 390 nM
  TGI: > 100000 nM
RXF 393 renal
  GI50: 171 nM
  TGI: 503 nM
BT-549 breast
  GI50: 464 nM
  TGI: 2300 nM
EKVX NSCLC
  GI50: 583 nM
  TGI: > 100000 nM
NCI-H226 lung
  GI50: 754 nM
  TGI: > 100000 nM
RPMI-8226 leukemia
  GI50: 381 nM
  TGI: > 100000 nM
HCT-116 colon
  GI50: 371 nM
  TGI: 19800 nM
SNB-19 CNS
  GI50: 468 nM
  TGI: > 100000 nM
HS 578T breast
  GI50: 312 nM
  TGI: > 100000 nM
SN12C renal
  GI50: 557 nM
  TGI: > 100000 nM
OVCAR-5 ovarian
  GI50: 521 nM
  TGI: > 100000 nM
A498 renal
  GI50: 227 nM
  TGI: 785 nM
HCC-2998 colon
  GI50: 564 nM
  TGI: 34000 nM
U251 CNS
  GI50: 343 nM
  TGI: > 100000 nM
UO-31 renal
  GI50: 718 nM
  TGI: > 100000 nM
HCT-15 colon
  GI50: 349 nM
  TGI: > 100000 nM
ACHN renal
  GI50: 943 nM
  TGI: > 100000 nM
LOX IMVI melanoma
  GI50: 572 nM
  TGI: > 100000 nM
HOP-92 NSCLC
  GI50: 2780 nM
  TGI: > 30300 nM
SK-MEL-5 melanoma
  GI50: 614 nM
  TGI: 22700 nM
786-0 renal
  GI50: 583 nM
  TGI: 44500 nM
OVCAR-3 ovarian
  GI50: 395 nM
  TGI: > 100000 nM
KM12 colon
  GI50: 148 nM
  TGI: > 100000 nM
MDA-MB-231 breast
  GI50: 656 nM
  TGI: > 100000 nM
SK-MEL-28 melanoma
  GI50: 1680 nM
  TGI: > 100000 nM
SF-539 CNS
  GI50: 232 nM
  TGI: 683 nM
HL-60(TB) leukemia
  GI50: 257 nM
  TGI: 932 nM
MDA-MB-435
  GI50: 84.8 nM
  TGI: 317 nM
K-562 leukemia
  GI50: 215 nM
  TGI: > 100000 nM
CAKI-1 renal
  GI50: 403 nM
  TGI: > 100000 nM
COLO 205 colon
  GI50: 300 nM
  TGI: 945 nM
CCRF-CEM leukemia
  GI50: 342 nM
  TGI: > 100000 nM
M14 melanoma
  GI50: 234 nM
  TGI: 4670 nM
OVCAR-8 ovarian
  GI50: 473 nM
  TGI: > 100000 nM
SW-620 colon
  GI50: 394 nM
  TGI: > 100000 nM
SF-268 CNS
  GI50: 3410 nM
  TGI: > 100000 nM
IGROV1 ovarian
  GI50: 622 nM
  TGI: > 100000 nM
TK-10 renal
  TGI: > 100000 nM
HOP-62 NSCLC
  GI50: 567 nM
  TGI: > 100000 nM
NCI/ADR-RES ovarian
  GI50: 327 nM
  TGI: > 36100 nM
NCI-H460 lung
  GI50: 367 nM
  TGI: > 34200 nM
HT29 colon
  GI50: 320 nM
  TGI: > 100000 nM
DU-145 prostate
  GI50: 441 nM
  TGI: > 100000 nM
SK-MEL-2 melanoma
  GI50: 317 nM
  TGI: > 100000 nM
UACC-257 melanoma
  TGI: > 100000 nM
OVCAR-4 ovarian
  GI50: > 88900 nM
  TGI: > 100000 nM
SF-295 CNS
  GI50: 282 nM
  TGI: > 71600 nM
MCF7 breast
  GI50: 301 nM
  TGI: > 100000 nM
